Test results published in paper PMC5591244, “Novel selective, potent naphthyl TRPM8 antagonists identified through a combined ligand- and structure-based virtual screening approach” (Scientific Reports, 2017).

Columns and labels:
Assay type in all cases: cell-based
[1] = molecular target: T1, TRPM8 (Homo sapiens, UniProt Q7Z2W7); assay: Calcium mobilization assay (HTS and dose-response) on HEK-293/hTRPM8 cells; conditions: for Max inhibition: HTS campaign, Cooling agent 10 30 μM, %inhibition values obtained at 10 mM (so in the source)
T1 construct: expressed in transfected cells
T1 sequence (Q7Z2W7 whole entry): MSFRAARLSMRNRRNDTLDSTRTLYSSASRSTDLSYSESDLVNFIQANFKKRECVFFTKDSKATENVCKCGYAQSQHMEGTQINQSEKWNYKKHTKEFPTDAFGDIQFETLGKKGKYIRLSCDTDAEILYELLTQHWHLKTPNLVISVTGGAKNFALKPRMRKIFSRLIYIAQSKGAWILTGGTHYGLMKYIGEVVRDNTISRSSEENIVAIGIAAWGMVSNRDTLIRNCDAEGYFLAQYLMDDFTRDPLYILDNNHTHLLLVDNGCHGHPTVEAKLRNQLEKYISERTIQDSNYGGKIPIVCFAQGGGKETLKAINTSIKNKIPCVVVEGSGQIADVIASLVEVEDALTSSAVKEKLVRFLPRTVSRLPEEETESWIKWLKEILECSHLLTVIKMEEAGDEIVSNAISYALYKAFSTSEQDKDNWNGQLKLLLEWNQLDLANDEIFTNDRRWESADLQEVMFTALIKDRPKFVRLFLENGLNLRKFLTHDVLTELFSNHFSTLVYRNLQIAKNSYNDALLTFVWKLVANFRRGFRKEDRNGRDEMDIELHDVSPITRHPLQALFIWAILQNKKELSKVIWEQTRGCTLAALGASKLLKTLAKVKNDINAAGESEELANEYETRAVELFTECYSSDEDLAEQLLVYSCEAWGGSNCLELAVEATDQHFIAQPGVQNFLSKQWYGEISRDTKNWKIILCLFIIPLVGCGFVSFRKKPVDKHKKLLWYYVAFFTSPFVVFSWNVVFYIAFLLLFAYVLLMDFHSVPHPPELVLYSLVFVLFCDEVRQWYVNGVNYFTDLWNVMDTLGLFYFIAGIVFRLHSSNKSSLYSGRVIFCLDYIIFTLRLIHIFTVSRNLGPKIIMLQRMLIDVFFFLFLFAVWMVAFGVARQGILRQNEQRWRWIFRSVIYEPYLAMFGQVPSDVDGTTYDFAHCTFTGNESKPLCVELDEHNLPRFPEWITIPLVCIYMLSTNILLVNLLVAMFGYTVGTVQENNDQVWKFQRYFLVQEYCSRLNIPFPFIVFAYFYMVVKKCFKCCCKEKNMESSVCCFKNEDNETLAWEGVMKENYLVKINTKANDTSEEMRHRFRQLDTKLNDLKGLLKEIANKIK
Protocol: All experiments were performed on HEK-293/hTRPM8 cells stably transfected with the human TRPM8 gene, except for site-directed mutagenesis analysis, which was performed on transient transfectants. In details, HEK-293 cells (ATCC, Manassas, Virginia) were transfected with the pcDNA3/hTRPM8 vector by electroporation (300 Volts, 950 µF) then selected with medium containing 0,8 mg/ml G418 for 10–15 days. Then the stable transfected pool underwent two rounds of limiting dilutions, in eight 96 well plates at a cell density of 1 cell/well, in order to obtain pure clones. The best responder clone was selected based on its response to 1 mM menthol in calcium mobilization experiments. HEK-293/hTRPM8 cells were maintained in EMEM (Minimum Essential Medium Eagle with Earl’s salts Balanced Salt Solution, LONZA) supplemented with 2 mM Ultraglutamine1 (Lonza), 1% Penicillin/Streptomycin (LONZA), 10% of Fetal Bovine Serum (Euroclone) and 0,4 mg/mL G418 (InvivoGen).
For calcium mobilization assays, cells were seeded at 10,000 cells/well in 384-well plates coated with poly-D-lysine (MATRIX black/clear bottom #4332-CPL, Thermo Scientific, Waltham, MA, USA) in complete medium.Twenty-four hours after seeding, the plates were washed with Tyrode’s buffer with a Bio-Tek-ELx405 Microplate Washer (Merck Millipore; Billerica, MA, USA), and then 10 µl/well of a solution containing the fluorescent Ca^2+ indicator Fluo-4 NW dye was added. Cells were incubated for 1 h at room temperature before test compounds were added at 3X the concentration with respect to the final wanted concentration to be tested with a FLIPR TETRA system (Molecular Devices, Sunnyvale, CA, USA). Calcium mobilization was monitored over a period of 5 min. A second injection of 10 µl/well of a reference agonist (icilin or Cooling agent 10) at 4X concentration in assay buffer was performed using the FLIPR TETRA system. Of note, for selectivity assays, the following agonists were used: 10 μM AITC (allyl isothiocyanate) for TRPA1; 100 nM Capsaicin for TRPV1; and 20 nM GSK1016790A for TRPV4.
After addition of the agonist, the fluorescence signal was recorded over the next 3 min. The bioactivity exerted by the compounds was expressed as a percentage of inhibition. The percentage scale is defined as follows: 100% inhibition was considered as the relative fluorescence units (RFUs) of the value of the MIN controls in the second injection (antagonist Capsazepine at IC100 = 50 µM) and 0% inhibition was considered as the RFU values of the value of the MAX controls in the second injection (Cooling agent 10 at EC80 = 30 µM). Data from four replicates were analyzed using GraphPad PRISM® software (version 5, GraphPad Software Inc.) to calculate the mean and standard error of the mean, to create sigmoidal concentration-response curves and to calculate IC50 values.

[2] = molecular target: T2, TRPM8 Y745A (Homo sapiens, UniProt Q7Z2W7, Y745A); assay: Calcium mobilization on transiently transfected TRPM8 Y745A mutant; conditions: agonist calcium response
T2 construct: expressed in transfected cells; host or cells: HEK-293, transient (Lipofectamine 2000)
T2 sequence (Q7Z2W7 whole entry Y745A): as the sequence (Q7Z2W7 whole entry) above, with Y745A counted along it
From the text: (§1) Single point mutations were introduced in the hTRPM8-coding sequence, and the mutated TRPM8 was cloned as N-terminal c-myc tagged version into the pcDNA3 expression vector. This was done in that way that the single variations could be easily swapped from the myc-tagged expression construct into the non-tagged TRPM8 wild type expression construct.
(§2) The list of the variants is the following: variant 1, t2233g, a2234c (=Y745A); variant 2, a2236g, t2237c (=I746A); variant 3, a2395g, a2396c (=N799A) and variant 4, a2405c (D802A). The cloning project comprised three steps. First of all, a unique XhoI restriction site was inserted by site-directed mutagenesis (SDM) using DNA of the pcDNA3_TRPM8 construct as template. The 0.6 kb DNA fragment between the unique 5′ XhoI (introduced) and 3′ BamHI (already present) restriction sites comprised all positions of the four single point mutations and could be later used for their insertion as well as swapping between myc-tagged and non-tagged TRPM8 versions. In a second step, the c-myc tag sequence was introduced embedded within the TRPM8 coding sequence by PCR primers in two partially overlapping PCRs that were then joined by bridge PCR with the external 5′KpnI and internal 3′EcoRI primers and in the last step the point mutations 1 to 4 were inserted into pcDNA3_c-myc-TRPM8 by exchanging the wild type 5′XhoI-3′BamHI fragment (0.6 kb) with each of the corresponding variation fragment derived from synthetic DNA (provided by GeneArt, ThermoFisher Scientific).The myc-tagged constructs were transiently transfected in HEK-293 cells with Lipofectamine 2000 (Invitrogen) according to the manufacturer’s protocol. The pcDNA vectors containing the wt myc-tagged TRPM8 gene and the empty pcDNA3 (mock) were separately transfected into HEK-293 cells as controls. […] The obtained data from at least four wells (as replicates) were analyzed with GraphPad PRISM® software (version 5, GraphPad Software Inc.) to calculate the mean and standard error of the mean[58], to create sigmoidal concentration-response curves and to calculate IC50 values.

[3] = molecular target: T3, TRPM8 N799A (Homo sapiens, UniProt Q7Z2W7, N799A); assay: Calcium mobilization on transiently transfected TRPM8 N799A mutant; conditions: agonist calcium response, N799A
T3 construct: expressed in transfected cells; host or cells: HEK-293, transient (Lipofectamine 2000)
T3 sequence (Q7Z2W7 whole entry N799A): as the sequence (Q7Z2W7 whole entry) above, with N799A counted along it
From the text: as §1
(§3) The list of the variants is the following: variant 1, t2233g, a2234c (=Y745A); variant 2, a2236g, t2237c (=I746A); variant 3, a2395g, a2396c (=N799A) and variant 4, a2405c (D802A). The cloning project comprised three steps. First of all, a unique XhoI restriction site was inserted by site-directed mutagenesis (SDM) using DNA of the pcDNA3_TRPM8 construct as template. The 0.6 kb DNA fragment between the unique 5′ XhoI (introduced) and 3′ BamHI (already present) restriction sites comprised all positions of the four single point mutations and could be later used for their insertion as well as swapping between myc-tagged and non-tagged TRPM8 versions. In a second step, the c-myc tag sequence was introduced embedded within the TRPM8 coding sequence by PCR primers in two partially overlapping PCRs that were then joined by bridge PCR with the external 5′KpnI and internal 3′EcoRI primers and in the last step the point mutations 1 to 4 were inserted into pcDNA3_c-myc-TRPM8 by exchanging the wild type 5′XhoI-3′BamHI fragment (0.6 kb) with each of the corresponding variation fragment derived from synthetic DNA (provided by GeneArt, ThermoFisher Scientific).The myc-tagged constructs were transiently transfected in HEK-293 cells with Lipofectamine 2000 (Invitrogen) according to the manufacturer’s protocol. The pcDNA vectors containing the wt myc-tagged TRPM8 gene and the empty pcDNA3 (mock) were separately transfected into HEK-293 cells as controls. Cells were transfected and seeded on the same day at 17,500 cells/well in poly-D-lysine-coated 384-well plates (MATRIX #4332-CPL). Twenty-four hours after seeding, the activity of transfected TRPM8 receptors was tested using the calcium mobilization assay as described above. The analysis was performed on the basis of ΔF/F° (normalized MAX-MIN), where ΔF is the MAX between time points 117 and 182 minus the MIN between time points TP114 and TP116, and F° is the basal signal at time point TP0. The obtained data from at least four wells (as replicates) were analyzed with GraphPad PRISM® software (version 5, GraphPad Software Inc.) to calculate the mean and standard error of the mean[58], to create sigmoidal concentration-response curves and to calculate IC50 values.

[4] = molecular target: T4, TRPM8 I746A (Homo sapiens, UniProt Q7Z2W7, I746A); assay: Calcium mobilization on transiently transfected TRPM8 I746A mutant; conditions: agonist calcium response, I746A
T4 construct: expressed in transfected cells; host or cells: HEK-293, transient (Lipofectamine 2000)
T4 sequence (Q7Z2W7 whole entry I746A): as the sequence (Q7Z2W7 whole entry) above, with I746A counted along it
From the text: as §1, §3

[5] = molecular target: T5, wt TRPM8 (Homo sapiens, UniProt Q7Z2W7); assay: Calcium mobilization on HEK-293 cells transiently transfected with wt myc-tagged TRPM8; conditions: agonist calcium response, wt; read-out: pIC50 of the agonist (agonist dose response), wt TRPM8 (converted)
T5 construct: expressed in transfected cells; host or cells: HEK-293, transient (Lipofectamine 2000)
T5 sequence (Q7Z2W7 whole entry): as the sequence (Q7Z2W7 whole entry) above
From the text: as §1
The list of the variants is the following: variant 1, t2233g, a2234c (=Y745A); variant 2, a2236g, t2237c (=I746A); variant 3, a2395g, a2396c (=N799A) and variant 4, a2405c (D802A). The cloning project comprised three steps. First of all, a unique XhoI restriction site was inserted by site-directed mutagenesis (SDM) using DNA of the pcDNA3_TRPM8 construct as template. The 0.6 kb DNA fragment between the unique 5′ XhoI (introduced) and 3′ BamHI (already present) restriction sites comprised all positions of the four single point mutations and could be later used for their insertion as well as swapping between myc-tagged and non-tagged TRPM8 versions. […] The obtained data from at least four wells (as replicates) were analyzed with GraphPad PRISM® software (version 5, GraphPad Software Inc.) to calculate the mean and standard error of the mean[58], to create sigmoidal concentration-response curves and to calculate IC50 values.

[6] = molecular target: T6, TRPM8 D802A (Homo sapiens, UniProt Q7Z2W7, D802A); assay: Calcium mobilization on transiently transfected TRPM8 D802A mutant; conditions: agonist calcium response, D802A
T6 construct: expressed in transfected cells; host or cells: HEK-293, transient (Lipofectamine 2000)
T6 sequence (Q7Z2W7 whole entry D802A): as the sequence (Q7Z2W7 whole entry) above, with D802A counted along it
From the text: as §1, §2

## Oc1cc2c(cc1O)CN(C(=S)NCCc1ccc(Cl)cc1)CCC2 [Capsazepine, reference compound]
[1]; MIN control antagonist
  IC100: 50 µM

## O=C(NCOCc1ccc2ccccc2c1)c1cccnc1 [Compound 2]
[1]
  Max inhibition: 7.92%

## O=C(COc1ccc2ccccc2c1)NCc1cccnc1 [Compound 3]
[1]
  Max inhibition: 0.00%

## O=C(NCOCc1ccc2ccccc2c1)c1cncc(Br)c1 [Compound 4]
[1]
  Max inhibition: 0.00%

## CC1CCC(C(C)C)C(OCC(O)CO)C1 (stereo not drawn) [Cooling agent 10]
[1]; MAX control agonist
  EC80: 30000 nM
[2]
  Agonist activity on Y745A mutant (words): completely abolished the activation
[3]
  Agonist activity on N799A mutant (words): did not affect either maximal TRPM8 activation or EC50
[4]
  Agonist activity on I746A mutant (words): minimal residual activation
[4]; listed as Cooling Agent 10
  Agonist activity on I746A mutant (words): strongly reduced agonist activity

## O=C1NC(c2cccc([N+](=O)[O-])c2)=CCN1c1ccccc1O [Icilin, icilin]
[5]
  EC50: 251 nM
[2]
  Agonist activity on Y745A mutant (words): abrogated agonist activity
[2]; listed as icilin
  Agonist activity on Y745A mutant (words): completely abolished the activation
[6]
  Agonist activity on D802A mutant (words): abrogated agonist activity
[6]; listed as icilin
  Agonist activity on D802A mutant (words): completely abolished TRPM8 activation
[3]
  Agonist activity on N799A mutant (words): abrogated agonist activity
[3]; listed as icilin
  Agonist activity on N799A mutant (words): completely abolished TRPM8 activation
[4]
  Agonist activity on I746A mutant (words): minimal residual activation
[4]; read-out: pIC50 of the agonist (agonist dose response), I746A (converted)
  EC50: 126 nM
